Experimental data from PubChem BioAssay AID1195 (EPA DSSTox, 2008).

Tested on: human maximum recommended daily dose, FDA database
Test: DSSTox (FDAMDD) FDA Maximum (Recommended) Daily Dose Database
Conditions: active compounds read low
Description: The Food and Drug Administration (FDA) Center for Drug Evaluation and Research, Office of Pharmaceutical Science, Informatics and Computational Safety Analysis Staff's Maximum Recommended Daily Dose (FDAMDD) database contains values for over 1200 pharmaceuticals listed in Martindale: The Extra Pharmacopoeia (1973, 1983, and 1993) and The Physicians' Desk Reference (1995 and 1999). Some classes of chemicals were excluded from the FDAMDD database due to their unsuitability for most QSAR modeling programs. These were inorganic chemicals, high molecular weight polymers (>5000 Daltons), fibers, salts, mixtures of organic chemicals, and small molecules (<100 Daltons). FDAMDD is the non-proprietary portion of the database that was used in the QSAR analysis reported in the Main Citation. DSSTox FDAMDD has fewer substance records than the original MRDD Source database due to consolidation of partial structures (i.e., complexed entities) into a single record and elimination of duplicate entries. DSSTox FDAMDD also differs from the MRDD Source database in presenting complete structural information pertaining to the actual salt or complexed form corresponding to the listed ChemicalName and CASRN. According to the Source authors, there are a number of cases where multiple related forms or derivatives of a drug were listed as separate records but were assumed to fall under the same clinical toxicity assessment and, therefore, assigned the same Dose_MRDD_mg activity value. For the DSSTox FDAMDD, we have labeled these derivatives in the ChemClass_MRDD_grouping field and provide their counts in the ChemicalReplicateCount field to highlight their special nature.
Maximum recommended daily dose (or maximum recommended therapeutic dose) values were determined from pharmaceutical clinical trials that employed an oral route of exposure and daily treatments, usually for 3-12 months. Drugs were given as single or divided dose treatment regimens to achieve desired pharmacological effects. Roughly 5% of the pharmaceuticals in the FDAMDD data file were antineoplastics and anesthetics and were administered intravenously and/or intramuscularly. When separate MRDDs were reported for different routes of exposure, only the oral MRDD was included in the data file and only MRDD values reported for the average adult patient were used. Pharmaceuticals that are administered orally are usually tested over a limited range of doses and have MRDDs reported as mg/day. The mg/day unit was converted to mg/kg-body weight (bw)/day based upon an average adult weighing 60 kg. In contrast, the dose unit for most antineoplastic drug MRDDs is reported as mg/m2 which was converted to mg/kg-bw/day using the formula mg/kg-bw/day = mg/m2/37 for an average adult. Additionally, a few drugs had MRDDs reported in parts per million (ppm) which were converted to mg/kg-bw/day on the basis that 1000 ppm equals 25 mg/kg-bw/day for an average 60 kg adult. Activity Score is mapping of LOG10(1/Dose_MRDD_mmol) spanning activity range [MIN, MAX] onto Integer 1-100 Activity range, where 100 is highest potency and 1 is lowest potency: ActivityScore = 100 * INTEGER[(LOGINV_MRDD_mmol - MIN)/(MAX […] MIN)]. Activity Outcome is "active" for all substances, since Dose_MRDD_mmol is reported for all substances.

[1] = TherapeuticCategory: expectorant
[2] = TherapeuticCategory: antibacterial
[3] = TherapeuticCategory: antineoplastic
[4] = TherapeuticCategory: antihistaminic
[5] = TherapeuticCategory: antispsychotic
[6] = TherapeuticCategory: anxiolytic
[7] = TherapeuticCategory: anti inflammatory
[8] = TherapeuticCategory: glucocorticoid

In the case of `OCC1COC(CCI)O1` (stereo unspecified), the maximum recommended daily dose (mmol/kg-bw/day) [1] is reported as 0.0155.

In the case of `CN1CCN(CCCN2c3ccccc3Sc3ccc(S(=O)(=O)N(C)C)cc32)CC1`, the maximum recommended daily dose (mmol/kg-bw/day) (TherapeuticCategory: neuroleptic, antiemetic) is reported as 0.00149.

`COc1ccc2c(c1)N(C[C@H](C)CN(C)C)c1ccccc1S2` was tested, and the maximum recommended daily dose (mmol/kg-bw/day) (TherapeuticCategory: analgesic) was 0.0101.

`CCOc1ccc2nc(S(N)(=O)=O)sc2c1` gave a maximum recommended daily dose (mmol/kg-bw/day) (TherapeuticCategory: carbonic anhydrase inhibitor, diuretic) of 0.0322.

`O=C(O)c1cn(C2CC2)c2cc(N3CCNCC3)c(F)cc2c1=O` gave a maximum recommended daily dose (mmol/kg-bw/day) [2] of 0.0401.

For `CC(=O)CC(c1ccccc1)c1c(O)c2ccccc2oc1=O` (stereo unspecified), the maximum recommended daily dose (mmol/kg-bw/day) (TherapeuticCategory: anticoagulant) was 0.000542.

In the case of `C#C[C@]1(OC(C)=O)CC[C@H]2[C@@H]3CCC4=CC(=O)CC[C@@H]4[C@H]3CC[C@@]21C`, the maximum recommended daily dose (mmol/kg-bw/day) (TherapeuticCategory: progestogen) is reported as 4.91e-05.

Molecule `CC[N+]1(CC)CCC(=C(c2ccccc2)c2ccccc2)C1C` (stereo unspecified) has a maximum recommended daily dose (mmol/kg-bw/day) (TherapeuticCategory: antispasmodic) of 0.00518.

In the case of `C[C@]12C=CC(=O)C=C1CC[C@@H]1[C@@H]2CC[C@]2(C)OC(=O)CC[C@@H]12`, the maximum recommended daily dose (mmol/kg-bw/day) [3] is reported as 0.0139.

`CN(C)CCOc1ccccc1Cc1ccccc1` showed a maximum recommended daily dose (mmol/kg-bw/day) [4] of 0.013.

Work on `CC(C)CCON=O` yielded a maximum recommended daily dose (mmol/kg-bw/day) (TherapeuticCategory: none) of 0.0427.

For `CCCC(CCC)C(N)=O`, the maximum recommended daily dose (mmol/kg-bw/day) (TherapeuticCategory: anticonvulsant) was 0.232.

With `CCCCCCCCCC(=O)OCCN1CCN(CCCN2c3ccccc3Sc3ccc(C(F)(F)F)cc32)CC1` the maximum recommended daily dose (mmol/kg-bw/day) [5] was 0.000563.

Molecule `COc1ccccc1O` has a maximum recommended daily dose (mmol/kg-bw/day) [1] of 0.0902.

In the case of `CCc1cc2c(s1)-n1c(C)nnc1CN=C2c1ccccc1Cl`, the maximum recommended daily dose (mmol/kg-bw/day) [6] is reported as 0.000195.

`N[C@@H](Cc1ccc(N(CCCl)CCCl)cc1)C(=O)O` gave a maximum recommended daily dose (mmol/kg-bw/day) [3] of 0.000328.

Molecule `Nc1nc(Cl)nc2c1ncn2[C@H]1C[C@H](O)[C@@H](CO)O1` has a maximum recommended daily dose (mmol/kg-bw/day) [3] of 0.000315.

Work on `CC(C)Nc1cccnc1N1CCN(C(=O)c2cc3cc(NS(C)(=O)=O)ccc3[nH]2)CC1` yielded a maximum recommended daily dose (mmol/kg-bw/day) (TherapeuticCategory: antiviral) of 0.0146.

`CCN(CC)C(=O)C1CN2CCc3cc(OC)c(OC)cc3C2CC1OC(C)=O` (stereo unspecified) gave a maximum recommended daily dose (mmol/kg-bw/day) (TherapeuticCategory: antipsychotic, antiemeic) of 0.00103.

In the case of `COC(=O)C1=C(C)NC(C)=C(C(=O)OC(C)C)C1c1cccc2nonc12` (stereo unspecified), the maximum recommended daily dose (mmol/kg-bw/day) (TherapeuticCategory: antihypertensive, antianginal) is reported as 0.00045.

With `C[N+](C)(C)CCOC(=O)CCC(=O)OCC[N+](C)(C)C` the maximum recommended daily dose (mmol/kg-bw/day) (TherapeuticCategory: skeletal muscle relaxant) was 0.00304.

`COc1ccc2c(c1)c(CC(=O)OCC(=O)O)c(C)n2C(=O)c1ccc(Cl)cc1` was tested, and the maximum recommended daily dose (mmol/kg-bw/day) [7] was 0.00721.

For `CCCCNC(=O)NS(=O)(=O)c1ccc(N)cc1`, the maximum recommended daily dose (mmol/kg-bw/day) (TherapeuticCategory: antidiabetic) was 0.0615.

For `Cc1noc(NS(=O)(=O)c2ccc(N)cc2)c1C`, the maximum recommended daily dose (mmol/kg-bw/day) [2] was 0.25.

In the case of `CN(C)CCC(O)(c1ccccc1)c1ccccc1Cl` (stereo unspecified), the maximum recommended daily dose (mmol/kg-bw/day) (TherapeuticCategory: antitussive) is reported as 0.00576.

`N[C@@H](C(=O)N[C@@H]1C(=O)N2C(C(=O)O)=C(Cl)CC[C@H]12)c1ccccc1` gave a maximum recommended daily dose (mmol/kg-bw/day) [2] of 0.0181.

`CNC(C)[C@@H]1CC[C@@H](N)[C@@H](O[C@H]2[C@H](O)[C@@H](O[C@H]3OC[C@](C)(O)[C@H](NC)[C@H]3O)[C@H](N)C[C@@H]2N)O1` (stereo partly specified) gave a maximum recommended daily dose (mmol/kg-bw/day) [2] of 0.00628.

In the case of `C[C@]12C=CC(=O)C=C1CC[C@@H]1[C@@H]2[C@@H](O)C[C@@]2(C)[C@H]1CC[C@]2(O)C(=O)COC(=O)CCC(=O)O`, the maximum recommended daily dose (mmol/kg-bw/day) [8] is reported as 0.0069.

`COc1cccc(C(=O)CCN[C@@H](C)[C@H](O)c2ccccc2)c1` showed a maximum recommended daily dose (mmol/kg-bw/day) (TherapeuticCategory: antianginal) of 0.00255.

For `CCCCNC(=O)OCC(C)(CCC)COC(N)=O` (stereo unspecified), the maximum recommended daily dose (mmol/kg-bw/day) [6] was 0.182.

With `CC(N)Cc1ccc(O)cc1` (stereo unspecified) the maximum recommended daily dose (mmol/kg-bw/day) (TherapeuticCategory: adrenergic, mydriatic) was 0.0265.

Molecule `O=C(O)CCC(=O)c1ccc(C2CCCCC2)c(Cl)c1` has a maximum recommended daily dose (mmol/kg-bw/day) [7] of 0.0678.

In the case of `CC1(C)[C@H](C(=O)O)N2C(=O)C[C@H]2S1(=O)=O`, the maximum recommended daily dose (mmol/kg-bw/day) (TherapeuticCategory: combination to form antibacterial) is reported as 0.286.

Molecule `C[C@H](CCC(=O)O)[C@H]1CC[C@H]2[C@@H]3[C@@H](O)C[C@@H]4C[C@H](O)CC[C@]4(C)[C@H]3CC[C@]12C` has a maximum recommended daily dose (mmol/kg-bw/day) (TherapeuticCategory: anticholelithogenic) of 0.0255.

With `CC(=O)OCC1=C(C(=O)O)N2C(=O)[C@@H](NC(=O)[C@H](N)c3ccccc3)[C@H]2SC1` the maximum recommended daily dose (mmol/kg-bw/day) [2] was 0.0821.

Work on `CCCCCCC(=O)OCCN1CCN(CCCN2c3ccccc3Sc3ccc(C(F)(F)F)cc32)CC1` yielded a maximum recommended daily dose (mmol/kg-bw/day) [5] of 0.000606.

Molecule `CCC1(c2ccccc2)C(=O)NC(=O)NC1=O` has a maximum recommended daily dose (mmol/kg-bw/day) (TherapeuticCategory: anticonvulsant, sedative, hypnotic) of 0.0093.

Molecule `CC1CCC(C(C)C)C(O)C1` (stereo unspecified) has a maximum recommended daily dose (mmol/kg-bw/day) (TherapeuticCategory: topical antipruritic) of 0.0128.

For `CN(N=O)C(=O)N[C@@H]1[C@@H](O)[C@H](O)[C@@H](CO)O[C@@H]1O`, the maximum recommended daily dose (mmol/kg-bw/day) [3] was 0.407.

`NS(=O)(=O)c1cc(C2(O)NC(=O)c3ccccc32)ccc1Cl` (stereo unspecified) showed a maximum recommended daily dose (mmol/kg-bw/day) (TherapeuticCategory: diuretic, antihypertensive) of 0.00246.

With `CO[C@@]12[C@H](COC(N)=O)C3=C(C(=O)C(C)=C(N)C3=O)N1C[C@@H]1N[C@@H]12` the maximum recommended daily dose (mmol/kg-bw/day) [3] was 0.00162.

With `CC(CCc1ccccc1)NC(C)C(O)c1ccc(O)cc1` (stereo unspecified) the maximum recommended daily dose (mmol/kg-bw/day) (TherapeuticCategory: vasodilator) was 0.00267.

In the case of `O=c1[nH]cnc2c1ncn2[C@H]1CC[C@@H](CO)O1`, the maximum recommended daily dose (mmol/kg-bw/day) (TherapeuticCategory: antiviral) is reported as 0.0282.

With `Oc1c(Cl)cc(Cl)c2cccnc12` the maximum recommended daily dose (mmol/kg-bw/day) (TherapeuticCategory: antiseborrhetic) was 0.312.

`CN1CCN(CCC=C2c3ccccc3Sc3ccc(S(=O)(=O)N(C)C)cc32)CC1` was tested, and the maximum recommended daily dose (mmol/kg-bw/day) (TherapeuticCategory: antipsychotic, dopamine receptor antagonist) was 0.00113.

With `CC[C@H]1OC(=O)[C@H](C)[C@@H](O[C@H]2C[C@@](C)(OC)[C@@H](O)[C@H](C)O2)[C@H](C)[C@@H](O[C@@H]2O[C@H](C)C[C@H](N(C)C)[C@H]2O)[C@](C)(O)C[C@@H](C)C(=O)[C@H](C)[C@@H](O)[C@]1(C)O` the maximum recommended daily dose (mmol/kg-bw/day) [2] was 0.0909.

For `CN(C)CCc1c[nH]c2ccc(Cn3cncn3)cc12`, the maximum recommended daily dose (mmol/kg-bw/day) (TherapeuticCategory: antimigraine) was 0.00186.

`CCCCC[C@](C)(O)/C=C/[C@@H]1[C@@H](C/C=C\CCCC(=O)O)[C@@H](O)C[C@H]1O` showed a maximum recommended daily dose (mmol/kg-bw/day) (TherapeuticCategory: oxytocic) of 0.000543.

`Cc1nc(NS(=O)(=O)c2ccc(N)cc2)oc1C` was tested, and the maximum recommended daily dose (mmol/kg-bw/day) [2] was 0.125.

In the case of `C[C@@H]1C[C@H]2[C@@H]3C[C@H](F)C4=CC(=O)C=C[C@]4(C)[C@H]3[C@@H](O)C[C@]2(C)[C@@]1(O)C(=O)CO`, the maximum recommended daily dose (mmol/kg-bw/day) [8] is reported as 0.00102.

In the case of `CC[N+](CC)(CCNC(=O)C(=O)NCC[N+](CC)(CC)Cc1ccccc1Cl)Cc1ccccc1Cl`, the maximum recommended daily dose (mmol/kg-bw/day) (TherapeuticCategory: cholinesterase inhibitor) is reported as 0.00274.

With `c1ccc2c(c1)Sc1ccccc1N2CC1CN2CCC1CC2` (stereo unspecified) the maximum recommended daily dose (mmol/kg-bw/day) [4] was 0.000518.

In the case of `CN1CCC[C@@H]1CCO[C@](C)(c1ccccc1)c1ccc(Cl)cc1`, the maximum recommended daily dose (mmol/kg-bw/day) [4] is reported as 0.00039.

For `CCNCC(O)c1cccc(O)c1` (stereo unspecified), the maximum recommended daily dose (mmol/kg-bw/day) (TherapeuticCategory: antihypotensive) was 0.0046.

In the case of `O=C(O)C(O)c1ccccc1` (stereo unspecified), the maximum recommended daily dose (mmol/kg-bw/day) (TherapeuticCategory: urinary antiseptic) is reported as 0.438.

`CC(C)(C(=O)c1cccnc1)c1cccnc1` gave a maximum recommended daily dose (mmol/kg-bw/day) (TherapeuticCategory: diagnostic aid) of 0.331.

`CC(C)(C)NCC(O)CSc1nc(-c2ccc(C(N)=O)s2)cs1` (stereo unspecified) showed a maximum recommended daily dose (mmol/kg-bw/day) (TherapeuticCategory: antihypertensive, antianginal, antiarrhythmic) of 0.000896.

With `CC(O)C(=O)O` (stereo unspecified) the maximum recommended daily dose (mmol/kg-bw/day) (TherapeuticCategory: acidulant) was 1.11.

For `CC(C)(C)NCC(O)c1ccc(O)c(CO)c1` (stereo unspecified), the maximum recommended daily dose (mmol/kg-bw/day) (TherapeuticCategory: bronchodilator, tocolytic) was 0.00223.

`COc1cc(NS(=O)(=O)c2ccc(N)cc2)c(OC)nn1` gave a maximum recommended daily dose (mmol/kg-bw/day) [2] of 0.161.

`CC(CCc1ccccc1)NCC(O)c1ccc(O)c(C(N)=O)c1` (stereo unspecified) gave a maximum recommended daily dose (mmol/kg-bw/day) (TherapeuticCategory: antihypertensive) of 0.122.
